pIC50, pKi: −log10 of the molar value.
Legend:
[1] = molecular target: T1, 11-beta-hydroxysteroid dehydrogenase 1 (Homo sapiens, UniProt P28845); assay: Inhibition of human 11beta-HSD1 expressed in Escherichia coli by SPA
[2] = molecular target: 11-beta-hydroxysteroid dehydrogenase 1 (Mus musculus, UniProt P50172); assay: Inhibition of mouse 11beta-HSD1 expressed in Escherichia coli by SPA
[3] = molecular target: T1, 11-beta-hydroxysteroid dehydrogenase 1; assay: Inhibition of human 11beta-HSD1 expressed in HEK293 cells by FPIA; assay type: cell-based
[4] = Intrinsic clearance in human liver microsomes at 1 uM; assay type: ADME, Microsome
[5] = Intrinsic clearance in mouse liver microsomes at 1 uM; assay type: ADME, Microsome
[6] = molecular target: 11-beta-hydroxysteroid dehydrogenase 1 (Rattus norvegicus, UniProt P16232); assay: Inhibitory activity against rat 11beta-HSD1
[7] = molecular target: T2, 11-beta-hydroxysteroid dehydrogenase type 2 (Rattus norvegicus, UniProt P50233); assay: Inhibitory activity against rat 11beta-HSD2
T2 sequence (P50233 whole entry): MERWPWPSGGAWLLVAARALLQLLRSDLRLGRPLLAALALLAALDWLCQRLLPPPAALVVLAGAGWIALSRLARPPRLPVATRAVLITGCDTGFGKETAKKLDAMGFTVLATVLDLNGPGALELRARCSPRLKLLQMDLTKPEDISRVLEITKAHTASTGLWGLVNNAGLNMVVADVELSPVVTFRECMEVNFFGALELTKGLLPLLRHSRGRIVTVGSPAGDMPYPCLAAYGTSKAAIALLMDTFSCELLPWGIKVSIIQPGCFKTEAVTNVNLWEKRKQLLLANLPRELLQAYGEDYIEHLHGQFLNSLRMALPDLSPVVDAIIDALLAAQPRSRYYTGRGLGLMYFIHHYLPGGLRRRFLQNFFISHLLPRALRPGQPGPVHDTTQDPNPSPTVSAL

[8] = Intrinsic clearance in rat liver microsomes at 1 uM; assay type: ADME, Microsome
[9] = molecular target: T3, 11-beta-hydroxysteroid dehydrogenase type 2 (Mus musculus, UniProt P51661); assay: Inhibitory activity against mouse 11beta-HSD2 by SPA
T3 sequence (P51661 whole entry): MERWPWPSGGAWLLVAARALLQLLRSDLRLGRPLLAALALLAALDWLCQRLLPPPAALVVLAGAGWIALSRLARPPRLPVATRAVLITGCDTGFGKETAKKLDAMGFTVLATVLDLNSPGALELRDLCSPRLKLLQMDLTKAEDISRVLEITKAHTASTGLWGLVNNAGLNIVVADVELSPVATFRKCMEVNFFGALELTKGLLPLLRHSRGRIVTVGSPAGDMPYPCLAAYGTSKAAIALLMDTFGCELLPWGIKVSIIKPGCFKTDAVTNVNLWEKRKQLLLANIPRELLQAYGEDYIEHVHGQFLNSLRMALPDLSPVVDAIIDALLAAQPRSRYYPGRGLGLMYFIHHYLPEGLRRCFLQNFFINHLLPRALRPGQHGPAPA

[10] = Half life in mouse at 10 mg/kg, iv; assay type: ADME, organism-based; set-up: dose 10 mg/kg, route intravenous; details: in vivo
[11] = Volume of distribution in mouse at 10 mg/kg, iv; assay type: ADME, organism-based; set-up: dose 10 mg/kg, route intravenous; details: in vivo, read-out: Vdss
[12] = Plasma clearance in mouse at 10 mg/kg, iv; assay type: ADME, organism-based; set-up: dose 10 mg/kg, route intravenous
[13] = Half life in mouse at 10 mg/kg, po; assay type: ADME, organism-based; set-up: dose 10 mg/kg, route oral; details: in vivo
Mus musculus = assay: AUC in mouse at 10 mg/kg, po; assay type: ADME, organism-based, Plasma; set-up: dose 10 mg/kg, route oral; details: in vivo
[14] = Oral bioavailability in mouse at 10 mg/kg, po; assay type: ADME, organism-based; details: in vivo
[15] = molecular target: T4, 11-beta-hydroxysteroid dehydrogenase type 2 (Homo sapiens, UniProt P80365); assay: Inhibitory activity against human 11beta-HSD2 by SPA
T4 sequence (P80365 whole entry): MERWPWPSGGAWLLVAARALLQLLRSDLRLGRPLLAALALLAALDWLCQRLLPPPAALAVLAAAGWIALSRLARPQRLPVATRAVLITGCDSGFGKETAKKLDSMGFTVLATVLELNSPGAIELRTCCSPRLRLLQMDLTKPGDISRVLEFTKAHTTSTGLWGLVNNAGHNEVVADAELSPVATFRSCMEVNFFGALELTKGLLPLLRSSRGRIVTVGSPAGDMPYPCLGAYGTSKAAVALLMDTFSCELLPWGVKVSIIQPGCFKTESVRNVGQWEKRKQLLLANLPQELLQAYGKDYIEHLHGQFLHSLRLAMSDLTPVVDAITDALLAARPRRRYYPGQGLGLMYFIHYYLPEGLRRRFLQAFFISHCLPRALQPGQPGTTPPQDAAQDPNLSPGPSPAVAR

Chain of 11-beta-hydroxysteroid dehydrogenase 1 (Mus musculus, UniProt P50172) (P50172 whole entry): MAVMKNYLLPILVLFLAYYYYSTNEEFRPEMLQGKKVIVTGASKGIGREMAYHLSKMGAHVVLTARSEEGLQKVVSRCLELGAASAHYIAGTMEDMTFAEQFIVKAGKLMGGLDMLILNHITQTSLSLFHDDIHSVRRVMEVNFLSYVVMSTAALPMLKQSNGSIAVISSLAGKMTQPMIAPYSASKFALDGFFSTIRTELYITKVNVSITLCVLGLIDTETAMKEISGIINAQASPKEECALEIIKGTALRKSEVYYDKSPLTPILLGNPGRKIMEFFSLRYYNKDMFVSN
T1 sequence (P28845 whole entry): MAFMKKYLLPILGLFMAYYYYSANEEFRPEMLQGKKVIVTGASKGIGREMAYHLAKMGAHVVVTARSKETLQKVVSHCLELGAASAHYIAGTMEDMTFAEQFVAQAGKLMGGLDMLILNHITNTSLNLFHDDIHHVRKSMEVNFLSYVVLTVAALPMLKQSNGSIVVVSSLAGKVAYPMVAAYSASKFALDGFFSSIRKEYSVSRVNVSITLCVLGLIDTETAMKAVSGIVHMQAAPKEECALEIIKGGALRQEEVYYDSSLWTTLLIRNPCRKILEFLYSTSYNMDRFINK
Chain of 11-beta-hydroxysteroid dehydrogenase 1 (Rattus norvegicus, UniProt P16232) (P16232 whole entry): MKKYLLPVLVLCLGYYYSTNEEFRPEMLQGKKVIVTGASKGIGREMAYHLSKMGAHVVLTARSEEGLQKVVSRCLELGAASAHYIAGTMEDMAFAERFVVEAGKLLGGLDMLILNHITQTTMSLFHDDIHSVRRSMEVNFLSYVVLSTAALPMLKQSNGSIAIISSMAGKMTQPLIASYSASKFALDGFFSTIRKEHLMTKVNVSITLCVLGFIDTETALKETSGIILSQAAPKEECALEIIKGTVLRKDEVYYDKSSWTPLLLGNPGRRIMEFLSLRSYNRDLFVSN

SMILES | pKi [1] | pKi [2] | pIC50 [3] | CLint scaled at 1 µM [4] [L/h/kg] | CLint scaled at 1 µM [5] [L/h/kg] | pIC50 [9] | further results
CC(C(=O)N[C@H]1C2CC3CC1C[C@](O)(C3)C2)N1CC(Oc2ccccc2F)C1 (some centres undefined) | – | 8.15 | – | < 1 | 23 | < 4.00 | pKi [6]: 7.28; pIC50 [7]: < 4.00; CLint scaled at 1 µM [8]: 4 L/h/kg; half-life [10]: 18 min; Vd [11]: 1.2 L/kg; clearance [12]: 7.2 L/h/kg; half-life [13]: 60 min; AUC (Mus musculus): 0.8 ug/hr.ml; bioavailability [14]: 58%
CC(C)(C(=O)N[C@H]1C2C[C@@]3(O)CC1C[C@@](O)(C2)C3)N1CCN(c2ccc(C(F)(F)F)cn2)CC1 | – | 6.33 | – | < 1 | 23 | – | –
O=C(CN1CCN(c2ccc(C(F)(F)F)cn2)CC1)N[C@H]1C2CC3CC1C[C@@](O)(C3)C2 | 7.17 | 6.52 | < 4.82 | 11 | 65 | < 4.00 | pIC50 [15]: < 5.00
C[C@H](C(=O)N[C@H]1C2CC3CC1C[C@](O)(C3)C2)N1CC[C@@H](F)C1 | 7.92 | 8.05 | 6.74 | < 1 | < 6 | < 4.00 | pIC50 [15]: < 4.00
CC(C(=O)N[C@H]1C2C[C@@]3(O)CC1C[C@@](F)(C2)C3)N1CCN(c2ccc(C(F)(F)F)cn2)CC1 (mixture of isomers) | – | 7.48 | – | < 1 | 14 | – | –

Further molecules by rising pKi [2], results first:

pKi [1] | pKi [2] | pIC50 [3] | CLint scaled at 1 µM [4] [L/h/kg] | CLint scaled at 1 µM [5] [L/h/kg] | pIC50 [9] | SMILES | further results
– | 6.04 | – | 1 | 56 | – | CC(C(=O)N[C@H]1C2C[C@]3(O)CC1C[C@](F)(C2)C3)N1CCN(c2ccc(C(F)(F)F)cn2)CC1 (mixture of isomers) | –
8.15 | 6.59 | 7.44 | – | – | – | C[C@@H](C(=O)N[C@H]1C2CC3CC1C[C@](O)(C3)C2)N1CCN(c2ccc(C(F)(F)F)cn2)CC1 (stereo in doubt; (S)-22f) | –
– | 6.74 | – | < 1 | 60 | – | CO[C@]12CC3C[C@](O)(CC(C1)C3NC(=O)C(C)(C)N1CCN(c3ccc(C(F)(F)F)cn3)CC1)C2 (some centres undefined) | –
7.59 | 6.96 | 6.35 | 14 | < 6 | < 4.00 | O=C(CN1CCN(c2ccc(C(F)(F)F)cn2)CC1)N[C@H]1C2CC3CC1C[C@@](F)(C3)C2 | pIC50 [15]: < 4.00
– | 7.29 | – | 10 | 142 | – | O=C(CN1CCN(c2ccc(C(F)(F)F)cn2)CC1)NC1C2CC3CC(C2)CC1C3 (centres undefined) | –
– | 7.68 | – | 35 | 63 | – | O=C(CN1CCN(c2ccc(Cl)cc2)CC1)NC1C2CC3CC(C2)CC1C3 (centres undefined) | –
8.40 | 8.30 | 7.59 | 1 | – | – | C[C@@H](C(=O)N[C@H]1C2CC3CC1C[C@](O)(C3)C2)N1CCN(c2ccc(C(F)(F)F)cn2)CC1 (stereo in doubt; (R)-22f) | –
